Legend:
Assay type in all cases: binding
[1] = test system: human monoclonal antibody CR57
[2] = test system: human monoclonal antibody CRJA
[3] = test system: human monoclonal antibody CRJA; remark: listed apart in the source
[4] = test system: human monoclonal antibody CRJB
[5] = test system: human monoclonal antibody CRJB; remark: listed apart in the source
[6] = test system: human monoclonal antibody CR57; remark: listed apart in the source

Sequence | Binding of CR57 to linear peptide (PEPSCAN-ELISA signal) [1] | Binding of CRJA to linear peptide (PEPSCAN-ELISA signal) [2] | Binding of CRJA (10 μg/ml) to looped/cyclic peptide (PEPSCAN-ELISA) [3] | Binding of CRJB to linear peptide (PEPSCAN-ELISA signal) [4] | Binding of CRJB (10 μg/ml) to looped/cyclic peptide (PEPSCAN-ELISA) [5] | Binding of CR57 (10 μg/ml) to looped/cyclic peptide (PEPSCAN-ELISA) [6] | Binding of CRJA (10 μg/ml) to looped/cyclic peptide (PEPSCAN-ELISA signal) [3] | Binding of CRJB (10 μg/ml) to looped/cyclic peptide (PEPSCAN-ELISA signal) [5] | Binding of CR57 (10 μg/ml) to looped/cyclic peptide (PEPSCAN-ELISA signal) [6] | binding of antibody CR57 to linear peptide (PEPSCAN OD) [1] | strength of binding of CR57 (OD value compared with the other peptides / twice the average value) [1] | binding of antibody CRJA to looped/cyclic peptide (PEPSCAN OD) [3]
EMQSSLLQQHMELLE | 58 | 94 | 88 | 129 | 98 | 78 |  |  |  |  |  | 
IFNKTLMEADAHYKS | 100 | 87 | 98 | 118 | 86 | 107 |  |  |  |  |  | 
GKCSGVAVSSTYCST | 92 | 103 |  | 143 |  |  | 97 | 74 | 79 |  |  | 
NNLVVEDEGCTNLSG | 72 | 93 |  | 99 |  |  | 88 | 75 | 86 |  |  | 
GVAVSSTYCSTNHDY | 79 | 83 |  | 114 |  |  | 96 | 80 | 111 |  |  | 
ADLDPYDRSLHSRVF | 70 | 100 |  | 121 |  |  | 92 | 73 | 93 |  |  | 
VVEELVRKREECLDA | 62 | 90 | 59 | 108 | 5 | 30 |  |  |  |  |  | 
KGCLRVGGRCHPHVN | 68 | 108 | 102 | 130 | 91 | 65 |  |  |  |  |  | 
NYTNFVGYVTTTFKR | 49 | 97 |  | 114 |  |  | 85 | 88 | 58 |  |  | 
TCTGVVTEAENYTNF | 92 | 96 |  | 112 |  |  | 112 | 93 | 107 |  |  | 
LVVEELVRKREECLD | 64 | 65 | 50 | 100 | 76 | 68 |  |  |  |  |  | 
CSTNHDYTIWMPENP | 52 | 58 |  | 106 |  |  | 41 | 72 | 47 |  |  | 
GACKLKLCGVLGLRL | 123 | 64 | 54 | 134 | 79 | 73 |  |  |  | bound | lower than twice the average value | 
HVNGVFFNGIILGPD | 97 | 108 | 105 | 123 | 92 | 97 |  |  |  |  |  | 
TTKESLVIISPSVAD | 78 | 91 |  | 121 |  |  | 108 | 71 | 114 |  |  | 
DPYDRSLHSRVFPSG | 90 | 92 |  | 120 |  |  | 186 | 71 | 106 |  |  | clearly bound
GPDGNVLIPEMQSSL | 86 | 91 | 112 | 154 | 100 | 141 |  |  |  |  |  | 
RLGMSCDIFTNSRGK | 88 | 92 |  | 106 |  |  | 110 | 104 | 105 |  |  | 
LIPEMQSSLLQQHME | 89 | 107 | 91 | 111 | 85 | 98 |  |  |  |  |  | 
CSGVAVSSTYCSTNH | 110 | 106 |  | 165 |  |  | 94 | 90 | 94 |  |  | 
MELLESSVIPLVHPL | 90 | 83 | 94 | 125 | 100 | 115 |  |  |  |  |  | 
CDIFTNSRGKRASKG | 42 | 133 |  | 104 |  |  | 101 | 90 | 1 |  |  | 
LCGVLGLRLMDGTWV | 83 | 111 | 106 | 138 | 104 | 128 |  |  |  |  |  | 
NPYPDYRWLRTVKTT | 85 | 106 |  | 102 |  |  | 84 | 92 | 89 |  |  | 
AIKMNGFTCTGVVTE | 47 | 93 |  | 103 |  |  | 71 | 79 | 69 |  |  | 
ESLVIISPSVADLDP | 88 | 120 |  | 125 |  |  | 118 | 65 | 99 |  |  | 
YCSTNHDYTIWMPEN | 47 | 76 |  | 92 |  |  | 468 | 71 | 65 |  |  | clearly bound
GIILGPDGNVLIPEM | 107 | 107 | 92 | 132 | 93 | 108 |  |  |  |  |  | 
DIHHLSCPNNLVVED | 38 | 61 |  | 96 |  |  | 62 | 48 | 52 |  |  | 

Source: patent publication US20060263802A1 (priority 2003, published 2006)
